Data set [1] concerns thrombin. The data set is described as follows: Clotting time, thrombin-catalyzed conversion of fibrinogen to fibrin. The data set is classed as biochemical. Particulars: thrombin 10 nM. As to the method: Clotting time for the thrombin-catalyzed conversion of fibrinogen (2.0 mg/ml in selection buffer) to fibrin at 37 C. was measured using a precision coagulation timer apparatus (Becton-Dickinson, Cat. nos. 64015, 64019, 64020). Thrombin (10 nM) incubated with fibrinogen alone clotted in 40 sec, thrombin incubated with fibrinogen and P1 nuclease (Boehringer-Mannheim, Indianapolis, Ind.) clotted in 39 sec, thrombin incubated with fibrinogen and aptamer clone #5 (200 nM) clotted in 115 sec, and thrombin incubated with fibrinogen, clone #5 (200 nM) and […] clotted in 40 sec. All incubations were carried out at 37 C. using reagents prewarmed to 37 C. Aptamer DNA or, when present, P1 nuclease, was added to the fibrinogen solution prior to addition of thrombin.

Data set [2] concerns thrombin. As to the kind of experiment: Thrombin inhibition Ki. The data set is classed as biochemical. Particulars: Table 7. An excerpt:
The binding affinity of the aptamers herein with respect to targets and other molecules is defined in terms of Kd. The value of this dissociation constant can be determined directly by well-known methods, and can be computed even for complex mixtures by methods such as those, for example, set forth in Caceci, M., et al., Byte (1984) 9:340-362. It has been observed, however, that for some small oligonucleotides, direct determination of Kd is difficult, and can lead to misleadingly high results. Under these circumstances, a competitive binding assay for the target molecule or other candidate substance may be conducted with respect to substances known to bind the target or candidate. The value of the concentration at which 50% inhibition occurs (Ki) is, under ideal conditions, equivalent to Kd. However, in no event can Ki be less than Kd. Thus, determination of Ki, in the alternative, sets a maximal value for the value of Kd. Under those circumstances where technical difficulties preclude accurate measurement of Kd, measurement of Ki can conveniently be substituted to provide an upper limit for Kd.
Independent verification of the Ki for the nonmodified 15-mer was made by determining the extent of thrombin inhibition with varying DNA concentration.

A further data set relates to Kallikrein. As to the kind of experiment: Filter binding specificity assay (Table 11), kallikrein. Particulars: Kallikrein about 1 µM. As to the method: (§1) Briefly, radiolabeled aptamer DNA at about a concentration of about 1 nM was incubated with the indicated protein for several minutes at room temperature, followed by filtration of the aptamer-protein mixture through a nitrocellulose filter. The filter was washed with 3 mL of selection buffer and then radioactivity bound to the filters was determined as a % of input radioactivity. Binding data is shown for both unselected 96-mer DNA and for two separate experiments with clone #29 96-mer. All proteins were tested at about 1M concentration except human serum albumin which was used at 100M.

Data set [3] concerns thrombin. As to the kind of experiment: Filter binding specificity assay (Table 11), thrombin. Particulars: DNA about 1 nM. As to the method:
as §1

In the next data set the test system is Plasmin. The data set is described as follows: Filter binding specificity assay (Table 11), plasmin. Set-up: dose or concentration left out as unconfirmed. The method, then: as §1
The next data set relates to TPA. The data set is described as follows: Filter binding specificity assay (Table 11), TPA. The note with it: TPA about 1 µM. The method, then:
as §1

A further data set concerns Prothrombin. As to the kind of experiment: Filter binding specificity assay (Table 11), prothrombin. Set-up: dose or concentration left out as unconfirmed. Particulars: listed as Clone 29 DNA. The method, then: as §1
The next data set concerns human serum albumin. The data set is described as follows: Filter binding specificity assay (Table 11), albumin. The note with it: human serum albumin 100 µM; listed as Clone 29 DNA. As to the method: as §1
The test system of the next data set is Trypsin. The data set is described as follows: Filter binding specificity assay (Table 11), trypsin. Set-up: dose or concentration left out as unconfirmed. The method, then:
as §1

Data set [4] deals with thrombin. The data set is described as follows: Nitrocellulose filter binding, dissociation constant for thrombin. Set-up: species or system human. As to the method: Filter binding assays using aptamer DNA from 14 of the clones were used to determine the dissociation constants (KD) for thrombin as follows: Thrombin concentrations between […] and 1 nM were incubated at room temperature in selection buffer for 5 minutes in the presence of […] of radiolabeled 96-mer derived from cloned Round 5 aptamer DNA. After incubation, the thrombin and aptamer mixture was applied to nitrocellulose filters (0.2 micron, 2.4 cm diameter) that were pretreated with salmon sperm DNA (1 mg/ml DNA in selection buffer) and washed twice with 1 ml selection buffer. After application of thrombin mixture, the filters were washed three times with 1 ml selection buffer. The radioactivity retained on the filters was then determined. KD values for the individual clones ranged from 50 to >2000 nM.
One of these two clones (#17) and the original unselected pool was analyzed for thrombin binding by nitrocellulose filter assay described above using DNA labeled with ^32 P to permit analysis of thrombin binding characteristics. The labeled DNA was synthesized by PCR and contained 5-(1-pentynyl)-2'-deoxyuridine in order to retain the original selected DNA structures. The DNA was incubated with thrombin at various concentrations between 10 nM and 10M to obtain the KD values for thrombin binding. The KD of the unselected pool was […] while the KD of clone 17 was 400 nM. […]

The next data set concerns Chymotrypsin. As to the kind of experiment: Filter binding specificity assay (Table 11), chymotrypsin. The note with it: Chymotrypsin about 1 µM. As to the method: as §1
The subject of another data set is human blood. The data set is described as follows: Extracorporeal hemodialysis circuit blood coagulation. Particulars: heparin 1 U/mL. The method, then:
A bolus of 15-mer DNA was delivered to human blood at 37 C. to give an aptamer concentration of 10M. The blood was contained in an extracorporeal hemodialysis circuit (Travenol, Model No. CA-90). Pressure proximal to the hemodialysis filter was monitored to determine the time after administration of aptamer that coagulation occurred. Blood coagulation was marked by a pressure increase from about 50 mm Hg observed with uncoagulated blood (blood flow rate 200 mL/min) to pressure of at least 400 mm Hg.

The test system of data set [5] is thrombin. As to the kind of experiment: Prothrombin time test (PT) after intravenous aptamer in monkeys. The data set is classed as in vivo, cynomologous monkeys. The note with it: high dose infusion 0.5 mg/kg/min. The method, then: Two thrombin aptamers were administered to adult male cynomologous monkeys. Unsubstituted 15-mer DNA with the sequence 5' GGTTGGTGTGGTTGG 3' and an analog, 5' GGTTGGTGTGGTT*G*G 3', containing thioate internucleotide linkages at the indicated positions were used. Aptamer was delivered as an intravenous bolus or infusion and then blood samples were withdrawn at various times after delivery of the bolus or during and after infusion. The catheter was heparinized after the 10 minute timepoint. The animals were not systematically heparinized.
Thrombin inhibition was measured by a prothrombin time test (PT) using a commercially available kit, reagents and protocol (Sigma Diagnostics, St. Louis, catalog Nos. T 0263 and 870-3). Inhibition of thrombin was indicated by an increased clot time compared to the control in the PT test. Clot times were obtained by withdrawing a sample of blood, spinning out red cells and using the plasma in the PT test. Control thrombin PT clot time values were obtained several minutes prior to administration of aptamer. Briefly, the PT assay was conducted using 0.1 mL of monkey plasma prewarmed to 37 C. and 0.2 mL of a 1:1 mixture of thromboplastin (used according to manufacturers instructions) and CaCl2 (25 mM), also prewarmed to 37 C. Thrombin clot times were measured with a fibrometer as described above. […]

A further data set relates to ancrod. As to the kind of experiment: Ancrod fibrinogen clotting assay. The format is biochemical. As to the method:
The thrombin 21-mer ancrod assay was conducted as follows. Ancrod was suspended in sterile water at a concentration of 44 U/mL. 10 L ancrod solution was added to 95 L of selection buffer prewarmed to 37 C. 100 L of this mixture was transferred to the coagulation cup of the fibrometer described above, followed by addition of 200 L of fibrinogen and 20 L of 21-mer DNA (both prewarmed to 37 C). TE buffer pH 7.0 was used as a control lacking DNA. The control clot time was 25 seconds while the clot time in the presence of 500 nM 21-mer was 24 seconds and was 26 seconds in the presence of 33M 21-mer.

Several values for one entry are separate records, joined by “and”; a condition that tells them apart may be missing. Equal entries are not always repeated.

Take 5' GGTTGGG 3': the thrombin clotting time in the data set with thrombin [1] was 38 s.

In general, Ki refers to the dissociation constant of the complex between target and ligand, obtained from inhibition or displacement. “GGTTGG(dU)G(dU)GGTTGG: 15-mer with uracil for thymine” showed a Ki with thrombin [2] of 15 nM.

In the data set on thrombin [2], “G*G*T*T*G*G*T*G*T*G*G*T*T*G*G: 15-mer with all thioate linkages” returned a Ki of 280 nM.

The term Kd denotes a measure of binding affinity in units of concentration. As to “5' CGGGGAGAGGTTGGTGTGGTTGGCAATGGCTAGAGTAGTGAC GTTTTCGCGGTGAGGTCC 3' [Clone #29]”, the “% Bound” value is < 0.5% in the data set on Kallikrein; 0% in the data set on thrombin [3] (Control, no protein); 59.0% in the data set with thrombin [3] (Thrombin about 1 µM); 15.0% in the data set with Plasmin; < 0.5% with TPA; 11.0% and 9.5% in the data set on Prothrombin. The “% Bound” value is 2.0% and < 0.5% in the data set with human serum albumin; < 0.5% in the data set with Trypsin; < 0.5% in the data set with Chymotrypsin. For the same substance, the Kd on thrombin [4] was ~200 nM.

“GG(dU)TGGTGTGG(dU)TGG: 15-mer with uracil for thymine” gave a Ki in the data set on thrombin [2] of 80 nM.

As for heparin, in the data set with human blood, the “time to blood coagulation in hemodialysis unit” value is > 80 min.

On to 5' GGGGGTT 3' [reference compound], for which the thrombin clotting time in the data set with thrombin [1] turned out to be 26 s.

Turning to 5' GGTTGGTGTGGTT*G*G 3', in the data set on thrombin [5], the “PT clot time during infusion” value is recorded as 2.5 to 2.7 times the control value. The substance also had a Ki in the data set on thrombin [2] of 40 nM.

Turning to “5' GGTTGGGCTGGTTGGGTTGGG 3' (chemistry not given here) [Compound 21-mer, 21-mer thrombin aptamer]”, the values for the clot time with ancrod (500 nM 21-mer) and in the data set on ancrod (21-mer) were 24 s and 26 s, respectively.

Regarding “GGTTGGTGTGGTTGG#G#T: closely related 17-mer with MEA linkages”, in the data set with thrombin [2], the Ki came to 35 nM.

Substance “GGTTGGTGTGGTU'GG: 15-mer with 5-(1-pentynyl)uracil” displayed a Ki in the data set with thrombin [2] of 20 nM.

Values taken from patent publication US5756291A, “Aptamers specific for biomolecules and methods of making” (priority 1995, dated 1998).
